Measurements taken from patent US20230035479A1, “METHODS AND COMPOSITIONS FOR REDUCING HAIR GREYING” (President and Fellows of Harvard College, priority 2019, published 2023).
Like-named read-outs stand apart in the source and are kept apart here.

Legend:
sympathetic neurons = test: c-FOS immunofluorescence in sympathetic ganglia; assay type: in vivo, mouse; details: after RTX injection
C57BL/6J mice = assay type: in vivo, mouse
[1] = tested on: melanocyte stem cells (MeSCs); test: MeSC numbers in hair follicles, TRP2 immunofluorescence or membrane GFP tracing
Method: For RTX injection, mice received injections of RTX (30-100 μg/kg) in the flank for 1-3 days as described previously [15, 16, 51-56]. […] Control mice were treated with the vehicle only. RTX injection was done either in full anagen (P31-P36) or in 1st telogen (P21). […] Mice were treated for three days (P28-P30). […] RTX was given at Anagen VI (P31˜P36).

mature melanocytes = test: Differentiated/mature melanocytes and hair bulb cells, immunofluorescence; assay type: in vivo, mouse
Method: Loss of hair pigmentation can be due to defects in melanin synthesis, loss of differentiated melanocytes, or problems in MeSC maintenance. To understand how stress impacts the melanocyte lineage, RTX was injected into mice in anagen, when both MeSCs and differentiated melanocytes were present but located within distinct compartments—MeSCs were near to the bulge while differentiated melanocytes were at the hair bulb (FIG. 1E). […] These differentiated melanocytes continued to generate pigments, and the hair coat remained black (FIGS. 6F-6G). When hair follicles in the RTX-injected animals entered catagen and telogen, many have lost all MeSCs (FIG. 1E, Telo). Subsequently, when the next round of anagen initiated, differentiated melanocytes were not produced to color new hair shafts, and unpigmented hairs emerged (FIG. 1E, 2nd Ana, FIG. 6H). […] In this case, unpigmented hairs appeared as soon as new hairs emerged in the following anagen (FIGS. 7A-7B). […] MeSCs were also lost or reduced in mice subjected to restraint stress or chronic unpredictable stress (FIG. 7C). Since stress depleted MeSCs, the loss of hair pigmentation in all three conditions was permanent (FIG. 7D).
Quiescence is a key feature of many somatic stem cells. Loss of quiescence has been postulated to cause MeSC loss in Bcl2 mutants. To examine if stress alters MeSCs quiescence, RTX or norepinephrine was injected into mice that had entered full anagen, when MeSCs are normally quiescent. A dramatic increase in the number of proliferating MeSCs was seen within 24 hours after RTX or norepinephrine injection—about 50% of MeSCs became positive for Phospho-Histone H3, an M phase marker (FIG. 4B). This number is in sharp contrast to the MeSC proliferation seen in early anagen (˜6%), the only stage when MeSCs proliferate to self-renew (FIG. 11E).
Mouse skin samples were fixed using 4% paraformaldehyde (PFA) for 15 minutes at room temperature, washed 6 times with PBS, and immersed in 30% sucrose overnight at 4° C. Samples were then embedded in OCT (Sakura Finetek). 35˜50 μm sections were fixed in 4% paraformaldehyde (PFA) for 2 minutes and washed with PBS and PBST. Slides were then blocked using blocking buffer (5% donkey serum; 1% BSA, 2% cold water fish gelatin in 0.3% Triton in PBS) for 1 hour at room temperature, followed by staining with primary antibodies overnight at 4° C. and secondary antibody for 4 hours at room temperature. For sympathetic nerve density quantification, 90 μm sections were used. EdU was developed for 1 hour using the Click-It reaction according to manufacturer instructions (Thermo Fisher Scientific). TUNEL assay was performed according to manufacturer instructions (Roche). Fontana—Masson staining was performed according to manufacturer instructions (Market Lab ML7255). Antibodies used: TRP2 (Santa Cruz 10451, 1:800), tyrosine hydroxylase (rabbit, Millipore AB152, 1:1000 or sheep, Millipore AB1542, 1:150-1:300), c-Fos (Abcam, 190289, 1:1000), γ-H2AX (Cell Signaling, 9718, 1:400), phospho-histone H3 (rabbit, Cell Signaling Technology 3377S, 1:500), cleaved caspase 3 (rabbit, Cell Signaling Technology 9664S, 1:400), GFP (rabbit, Abcam ab290, 1:1000 or chicken, Ayes labs GFP-1010, 1:200), CD3 (eBioscience 14-0032-81, 1:800), CD11b (eBioscience 14-0112-81, 1:800), Phospho-CREB (Cell Signaling 9198, 1:800), MITF (Abcam ab12039, 1:400).

Q: `C=C(C)[C@]12C[C@@H](C)[C@@]34O[C@](Cc5ccccc5)(O[C@@H]1[C@@H]3C=C(COC(=O)Cc1ccc(O)c(OC)c1)C[C@]1(O)C(=O)C(C)=C[C@@H]41)O2` [RTX, resiniferatoxin] was tested. Which “c-FOS induction in cell bodies of sympathetic neurons” value (sympathetic neurons) did it give?
A: Robust c-FOS induction

Q: What about the “time at which c-FOS induction diminishes” value (sympathetic neurons) of the same molecule?
A: > 24 h

Q: And the “time of peak c-FOS induction” value (sympathetic neurons)?
A: 2 to 4 h

Q: And the “time to c-FOS induction” value (sympathetic neurons)?
A: ≤ 1 h

Q: What about the “hair greying (unpigmented hairs)” value (C57BL/6J mice; C57BL/6J mice, next hair cycle after RTX injection) of the same molecule?
A: many new hairs formed in the next hair cycle following RTX injection became unpigmented

Q: What about the “extent of hair greying, male vs female” value (C57BL/6J mice; RTX injection, male and female mice) of the same molecule?
A: same extent of hair greying in both male and female mice

Q: And the white hair formation (C57BL/6J mice; RTX into CD11b-DTR mice, myeloid lineages ablated by diphtheria toxin)?
A: still resulted in white hair formation

Q: And the hair greying (C57BL/6J mice; RTX into RIPK3 mutant mice)?
A: still caused hair greying

Q: What about the white hair formation (C57BL/6J mice; RTX into Rag1 mutant mice lacking T and B cells) of the same molecule?
A: still resulted in white hair formation

Q: What about the hair greying (C57BL/6J mice; RTX into Tyr-CreER, GR fl/fl mice (MeSC-GR cKO)) of the same molecule?
A: still resulted in hair greying

Q: And the hair greying (C57BL/6J mice; RTX into adrenalectomized mice)?
A: still caused hair greying

Q: What about the white hair formation (C57BL/6J mice; RTX, ADRB2 depleted from MeSCs using Tyr-CreER) of the same molecule?
A: white hairs failed to form

Q: And the hair greying (C57BL/6J mice; RTX, ADRB2 depleted from hair follicle stem cells)?
A: still resulted in hair greying

Q: What about the MeSC loss ([1]; RTX injected during telogen) of the same molecule?
A: caused MeSC loss

Q: What about the “time to complete loss of MeSCs from the bulge in many hair follicles” value ([1]; RTX injected in anagen) of the same molecule?
A: ≤ 5 days

Q: And the “TRP2+ MeSC number” value ([1]; RTX injected in anagen, entire skin)?
A: significantly reduced

Q: What about the “GFP positive cells (traced MeSCs)” value ([1]; Tyr-CreER, Rosa-mT/mG mice, shortly after RTX injection (D1)) of the same molecule?
A: transient increase in GFP positive cells

Q: What about the “differentiated melanocytes in the same hair follicle” value (mature melanocytes; 5 days after RTX injection in anagen) of the same molecule?
A: remained unperturbed

Q: And the “proliferation or apoptosis in mature melanocytes” value (mature melanocytes; after injection, full anagen)?
A: no changes in proliferation or apoptosis
